Laboratory results: article PMC5293562, “Engineering a trifunctional proline utilization A chimaera by fusing a DNA-binding domain to a bifunctional PutA” (Bioscience Reports, 2016)
Like-named read-outs stand apart in the source and are kept apart here.

Legend:
[1] = tested on: T1, EcRHH–RcPutA; assay: stopped-flow, CoQ1 reduction at […] nm; format: biochemical, Rhodobacter capsulatus; details: 50 mM potassium phosphate pH 7.5, 25 mM NaCl, 23°C
T1 construct: gene putA; single polypeptide: E. coli PutA RHH domain (residues 1-52) fused via NdeI linker to N-terminus of full-length R. capsulatus PutA; 1180 aa; N-terminal His6 tag retained; pET28a, E. coli BL21(DE3) pLysS; homodimer, 126 kDa monomer

[2] = target: T2, RcPutA (Rhodobacter capsulatus, UniProt D5AN87); details: 50 mM proline reduces flavin; anaerobic; HEPES pH 7.5, 150 mM NaCl; room temperature
T2 construct: gene putA

[3] = target: T3, EcPutA (Escherichia coli, UniProt P09546); details: 50 mM proline reduces flavin; anaerobic; HEPES pH 7.5, 150 mM NaCl; room temperature
T3 construct: gene putA

[4] = target: EcRHH–RcPutA chimaera (RHH domain of Escherichia coli PutA fused to the N-terminus of Rhodobacter capsulatus PutA) (Escherichia coli | Rhodobacter capsulatus) (UniProt P09546); assay: AUC; sedimentation equilibrium, 0.2, 0.5 and 0.8 mg/ml, 8000 rpm, 50 mM Tris pH 7.5, 100 mM NaCl, 0.5 mM EDTA, 5% glycerol; global fit to an ideal single-species model
[5] = target: EcRHH–RcPutA chimaera (RHH domain of Escherichia coli PutA fused to the N-terminus of Rhodobacter capsulatus PutA) (Escherichia coli | Rhodobacter capsulatus) (UniProt P09546); assay: SAXS; three protein concentrations after size exclusion chromatography in 50 mM Tris, 200 mM NaCl, 0.5 mM THP, pH 7.5; mass from volume of correlation and Porod-Debye analysis; shape reconstruction with 2-fold symmetry
[6] = tested on: EcRHH-RcPutA chimaera (Escherichia coli / Rhodobacter capsulatus (chimaera)); assay: EMSA; details: EMSA with 3 nM IRdye-700 put control DNA, 100 ug/ml calf thymus DNA, non-denaturing 4% polyacrylamide gel; binding buffer, salt, pH and temperature not given …

Chain of EcRHH–RcPutA chimaera (RHH domain of Escherichia coli PutA fused to the N-terminus of Rhodobacter capsulatus PutA) (P09546 whole entry, the tested form may be a part): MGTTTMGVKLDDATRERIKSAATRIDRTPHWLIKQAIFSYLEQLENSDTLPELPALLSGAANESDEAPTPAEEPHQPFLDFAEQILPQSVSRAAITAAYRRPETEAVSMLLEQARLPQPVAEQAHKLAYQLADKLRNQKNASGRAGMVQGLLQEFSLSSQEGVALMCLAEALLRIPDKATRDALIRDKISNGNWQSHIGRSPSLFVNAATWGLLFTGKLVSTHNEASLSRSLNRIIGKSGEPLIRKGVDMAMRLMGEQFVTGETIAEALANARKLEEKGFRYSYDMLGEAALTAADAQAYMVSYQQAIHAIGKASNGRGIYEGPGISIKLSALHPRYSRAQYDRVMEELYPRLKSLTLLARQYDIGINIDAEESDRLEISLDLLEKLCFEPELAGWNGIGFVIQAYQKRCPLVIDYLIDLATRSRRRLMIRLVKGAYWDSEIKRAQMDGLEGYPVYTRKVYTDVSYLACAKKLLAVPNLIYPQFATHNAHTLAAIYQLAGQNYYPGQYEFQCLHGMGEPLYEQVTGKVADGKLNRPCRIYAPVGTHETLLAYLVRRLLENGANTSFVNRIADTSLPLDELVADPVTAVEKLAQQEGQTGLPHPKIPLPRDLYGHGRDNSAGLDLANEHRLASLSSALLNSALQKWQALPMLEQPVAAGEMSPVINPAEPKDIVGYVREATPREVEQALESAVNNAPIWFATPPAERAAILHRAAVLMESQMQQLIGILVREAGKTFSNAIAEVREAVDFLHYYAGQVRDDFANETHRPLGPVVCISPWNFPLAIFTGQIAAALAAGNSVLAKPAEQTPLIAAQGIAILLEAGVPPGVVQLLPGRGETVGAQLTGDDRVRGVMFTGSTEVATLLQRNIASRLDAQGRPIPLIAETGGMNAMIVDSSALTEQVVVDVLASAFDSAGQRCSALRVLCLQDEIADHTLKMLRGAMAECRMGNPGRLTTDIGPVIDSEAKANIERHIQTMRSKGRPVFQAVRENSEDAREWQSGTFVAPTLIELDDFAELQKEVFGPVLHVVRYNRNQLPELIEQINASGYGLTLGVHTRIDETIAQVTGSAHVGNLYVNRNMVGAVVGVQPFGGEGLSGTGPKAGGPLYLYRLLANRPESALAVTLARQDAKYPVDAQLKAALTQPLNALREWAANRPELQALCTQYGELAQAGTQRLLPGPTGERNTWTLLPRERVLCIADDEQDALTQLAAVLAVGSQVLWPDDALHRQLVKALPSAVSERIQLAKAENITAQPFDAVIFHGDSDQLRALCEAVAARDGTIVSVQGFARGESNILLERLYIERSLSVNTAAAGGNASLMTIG
T3 sequence (P09546 whole entry): as the sequence (P09546 whole entry, the tested form may be a part) above
T2 sequence (D5AN87 1-1127): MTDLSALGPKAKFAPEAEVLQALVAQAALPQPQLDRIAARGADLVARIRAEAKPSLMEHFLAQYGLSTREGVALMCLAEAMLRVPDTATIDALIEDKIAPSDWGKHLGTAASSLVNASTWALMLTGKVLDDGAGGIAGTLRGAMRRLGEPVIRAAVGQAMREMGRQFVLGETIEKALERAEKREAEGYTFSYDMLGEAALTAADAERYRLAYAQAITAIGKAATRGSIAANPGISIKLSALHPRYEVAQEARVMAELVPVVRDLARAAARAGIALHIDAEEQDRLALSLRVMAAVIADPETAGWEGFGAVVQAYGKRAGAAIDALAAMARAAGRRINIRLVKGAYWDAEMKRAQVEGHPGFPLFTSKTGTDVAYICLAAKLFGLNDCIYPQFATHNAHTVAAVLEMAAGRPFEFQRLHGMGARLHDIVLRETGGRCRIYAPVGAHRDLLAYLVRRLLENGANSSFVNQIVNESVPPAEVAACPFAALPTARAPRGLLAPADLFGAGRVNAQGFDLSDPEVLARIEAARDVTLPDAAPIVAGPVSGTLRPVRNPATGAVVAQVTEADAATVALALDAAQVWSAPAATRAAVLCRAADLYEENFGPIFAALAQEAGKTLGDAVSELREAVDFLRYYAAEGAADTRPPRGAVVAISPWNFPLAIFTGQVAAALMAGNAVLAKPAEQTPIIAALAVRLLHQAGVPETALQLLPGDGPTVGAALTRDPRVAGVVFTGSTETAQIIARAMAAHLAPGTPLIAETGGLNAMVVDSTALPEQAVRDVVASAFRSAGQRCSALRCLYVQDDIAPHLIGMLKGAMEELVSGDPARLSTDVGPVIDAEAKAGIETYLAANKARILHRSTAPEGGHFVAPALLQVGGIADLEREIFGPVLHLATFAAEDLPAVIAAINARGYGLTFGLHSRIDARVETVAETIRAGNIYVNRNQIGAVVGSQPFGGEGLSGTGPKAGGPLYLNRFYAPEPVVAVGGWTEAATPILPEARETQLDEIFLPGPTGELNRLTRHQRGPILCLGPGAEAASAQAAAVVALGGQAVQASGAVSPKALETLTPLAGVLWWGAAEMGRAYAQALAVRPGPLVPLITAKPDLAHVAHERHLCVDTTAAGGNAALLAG

Question: With O=C(O)[C@@H]1CCCN1 [proline] as the compound, how does the Km ([1]; PRODH site, 300 μM CoQ1, read-out: Km) read?
Answer: 5300 ± 900 µM

Question: And the “lipid pull-down (E. coli polar lipid vesicles), SDS/PAGE” value [2]?
Answer: In the presence of proline, RcPutA and EcRHH–RcPutA significantly partition into the lipid fraction

Question: And the “lipid pull-down (E. coli polar lipid vesicles), SDS/PAGE” value [3]?
Answer: RcPutA, EcRHH–RcPutA and EcPutA were incubated with E. coli polar lipid vesicles

Question: With “EcRHH–RcPutA chimaera (RHH domain of Escherichia coli PutA fused to the N-terminus of Rhodobacter capsulatus PutA) (from UniProt P09546 1-52) (enzyme)” as the compound, how does the stoichiometry N [4] read?
Answer: 2

Question: And the stoichiometry N [5]?
Answer: 2

Question: put control DNA (420 bp) was tested. Which Kd [6] did it give?
Answer: 0.058 µM

Question: Which Km ([1]; PRODH electron acceptor, 200 mM proline, read-out: Proline / Km) does the source give for COC1=C(OC)C(=O)C(CC=C(C)C)=C(C)C1=O [CoQ1] here?
Answer: 161 ± 15.8 µM
